Measured values: patent publication US6783985B1, “Gene disruption methodologies for drug target discovery” (Elitra Pharmaceuticals Inc., priority 2000, dated 2004)

Assays:
[1] = test system: wild type (diploid) CaHIS3 strain, CaHIS3 heterozygote strain and tetracycline promoter-regulated CaHIS3 GRACE strain; assay: Target level variation whole cell assay: 3-AT sensitivity of CaHIS3 strains; assay type: cell-based, Candida albicans; settings: for sensitivity of partially repressed (minimally expressing) CaHIS3 GRACE strain relative to heterozygous CaHIS3 strain: intermediate 3-AT concentration, threshold tetracycline (FIG. 6C, 6D)
Source text: The data derived from these experiments clearly indicate that distinct levels of target gene products synthesized within the pathogen could be directly applied in whole cell assay based drug screens to identify novel antifungal compounds active against novel drug targets validated using the GRACE method.
3-AT is a competitive inhibitor of the enzyme encoded by CaHIS3, imidazoleglycerol phosphate dehydratase, and together serve as a model for a drug and drug target respectively. […] The phenotype observed is consistent with that expected in light of the predicted 7.5 fold overexpression of CaHIS3 determined by Northern bolt analysis (see FIG. 5). […] A third CaHIS3 expression level evaluated for differential sensitivity to 3-AT was produced by partial repression of the GRACE CaHIS3 strain using a threshold concentration of tetracycline 0.1% […].
(§1) Moreover, these experiments clearly indicate how distinct levels of target gene products synthesized within the pathogen could be directly applied in whole cell assay based drug screens to identify novel antifungal compounds against those novel drug targets validated using the GRACE method.

[2] = test system: S. cerevisiae bar-coded strains bearing heterozygous mutations in HIS3, TUB1, ALG7, and ERG11; settings: grown together in a mixed population; targets HIS3, TUB1, ALG7, ERG11 respectively; cited from earlier work
C. albicans = assay: Sensitivity of C. albicans to selection antibiotics; assay type: cell-based, Candida albicans
Source text: Several art-known methods are available to create a heterozygote mutant. In less preferred embodiments, auxotrophic markers, such as but not limited to CaURA3, CaHIS3, CaLEU2, or CaTRP1, could be used for gene disruption if desired. However, the preferred method of heterozygote construction in diploid fungi employs a genetically modified dominant selectable marker. C. albicans is sensitive to the nucleoside-like antibiotic streptothricin at a concentration of 200 micrograms per milliliter. The presence of the Escherichia coli SAT1 gene within C. albicans allows acetylation of the drug rendering it nontoxic and permitting the strain to grow in the presence of streptothricin at a concentration of 200 micrograms per milliliter. Expression of the SAT1 gene in C. albicans is made possible by engineering the gene so that its DNA sequence is altered to conform to the genetic code of this organism and by providing a CaACT1 promoter (Morschhauser et al. (1998) Mol. Gen. Genet. 257:412-420) and a CaPCK1 terminator sequence (Leuker et al. (1997) Gene 192: 235-40). This genetically modified marker is referred to as CaSAT1 which is the subject of a copending United States nonprovisional application, filed Feb. 16, 2001. […]

CaERG11 GRACE strain = assay: Target level variation whole cell assay, CaERG11 GRACE strain; assay type: cell-based, Candida albicans
Source text: as §1

CaERG11 = settings: determined biochemically; cited from earlier work
CaALG7 GRACE strain = assay: Target level variation whole cell assay, CaALG7 GRACE strain; assay type: cell-based, Candida albicans
Source text: as §1

[3] = intermediate 3-AT concentration (FIG. 6B)

Nc1nc[nH]n1 [3-AT, 3-aminotriazole]
phenotype of CaHIS3 GRACE strain overexpressing CaHIS3 (constitutive tetracycline promoter expression) ([1]; 3-AT concentrations that completely inhibit wild type and heterozygote (FIG. 6A)): resistance
growth of wild type and CaHIS3 heterozygote strains ([1]; inhibitory levels of 3-AT (FIG. 6A)): completely inhibit growth
effect on wild type and tetracycline promoter-based overproducing CaHIS3 strains [1, 3]: unable to effect
sensitivity of heterozygous CaHIS3 strain (haploinsufficient phenotype) [1, 3]: enhanced sensitivity
sensitivity of partially repressed (minimally expressing) CaHIS3 GRACE strain relative to heterozygous CaHIS3 strain [1]: enhanced drug sensitivity
sensitivity of partially repressed (minimally expressing) CaHIS3 GRACE strain relative to heterozygous CaHIS3 strain ([1]; listed as 3-aminotriazole): hypersensitivity
sensitivity of the strain heterozygous for the compound's drug target versus other heterozygote bar-coded strains [2]: significantly greater sensitivity

CCCCNC(=O)n1c(NC(=O)OC)nc2ccccc21 [benomyl]
sensitivity of the strain heterozygous for the compound's drug target versus other heterozygote bar-coded strains [2]: significantly greater sensitivity

CN(CC[C@H](N)CC(=O)N[C@H]1C=C[C@H](n2ccc(N)nc2=O)O[C@@H]1C(=O)O)C(=N)N [blasticidin]
sensitivity of C. albicans to the fungicidal compound (C. albicans): sensitive

OC(Cn1cncn1)(Cn1cncn1)c1ccc(F)cc1F [fluconazole]
GRACE strain-specific phenotypes on increasing and decreasing expression of the drug target CaERG11 (CaERG11 GRACE strain): drug resistance and sensitivity phenotypes
sensitivity of the strain heterozygous for the compound's drug target versus other heterozygote bar-coded strains [2]: significantly greater sensitivity
mode of action, static or cidal (CaERG11): static

streptothricin
sensitivity of C. albicans to the antibiotic (C. albicans; streptothricin at 200 micrograms per milliliter): sensitive

tunicamycin
GRACE strain-specific phenotypes on increasing and decreasing expression of the drug target CaALG7 (CaALG7 GRACE strain): drug resistance and sensitivity phenotypes
sensitivity of the strain heterozygous for the compound's drug target versus other heterozygote bar-coded strains [2]: significantly greater sensitivity
